Results: patent publication US8344017B2, “Anti-hepatitis C virus agents and anti-HIV agents” (Mitsubishi Corporation, priority 2003, dated 2013)
Converted amounts (≈) assume the structure as drawn. Where two headings read alike, the source gives them in different places.

Tests used:
E. hirae ATCC 8043 = experiment: Antimicrobial activity, MIC; format: cell-based
Procedure: (§1) Each fullerene derivative or the like was dissolved in DMSO, then added to the culture medium of bacteria. Vancomycin is an antimicrobial agent used for drug resistant bacteria (Methicillin resistant strains, MRSA) which has been in trouble now. […] Among the regioisomers of the compound 2, 2t-2, 2t-3 and 2t-4, differences in the effects are observed in some degree depending on bacteria, however, there are no significant differences, and they have an antimicrobial activity substantially equivalent to that of vancomycin, and are also effective for MRSA. Furthermore, worthy of special mention is the fact that these fullerene derivatives and the like show an effective antimicrobial activity against also vancomycin-resistant bacteria (VRE). […] At present, vancomycin-resistant bacteria began to emerge, therefore, the compound 2 is expected to exert an effect on these.

S. eidermidis ATCC 14990 = experiment: Antimicrobial activity, MIC; format: cell-based
Procedure: as §1

S. aureus M133 (MRSA) = experiment: Antimicrobial activity, MIC; format: cell-based
Procedure: as §1

S. aureus M126 (MRSA) = experiment: Antimicrobial activity, MIC; format: cell-based
Procedure: as §1

S. aureus 209P JC-1 = experiment: Antimicrobial activity, MIC; format: cell-based
Procedure: as §1

[1] = tested on: E. faecalis NCTC 12201 (VRE); experiment: Antimicrobial activity, MIC; format: cell-based
Procedure: as §1

E. faecium vanA (VRE) = experiment: Antimicrobial activity, MIC; format: cell-based
Procedure: as §1

E. faecalis W-73 = experiment: Antimicrobial activity, MIC; format: cell-based
Procedure: as §1

[2] = molecular target: HIV reverse transcriptase (Human immunodeficiency virus type 1 group M subtype B, UniProt P03366); experiment: HIV reverse transcriptase inhibitory activity (32P-dTTP incorporation); format: biochemical; settings: 1 hour at 37° C., pH 8.3
Procedure: The experiment was performed as follows in 50 mM Tris-HCl buffer (pH 8.3); to 10 μL of a reaction solution which had been prepared so as to contain 30 mM NaCl, 10 mM MgCl, 2.5 mM DTT, 1.25 μg/mL poly(rA). oligo(dT) 12-18, 250 nM dTTP, ^32P-dTTP (800 μCi/mmol), 1 μl of a sample dissolved in DMSO, 1 μl of HIV reverse transcriptase (0.01 U/mL) were added, and the total volume was made up to 20 μl. After the solution was incubated for 1 hour at 37° C., 10 μl of the reaction solution was placed on a Whatman DE81 filter, which was washed three times with Na2HPO4, once with 70% ethanol and once with ethanol. The dried filter was placed in a vial, and the radioactivity was counted by the liquid scintillation measurement method, which was assigned to the HIV reverse transcriptase activity.

[3] = molecular target: T1, RNA polymerase of hepatitis C virus (Hepatitis C virus genotype 1a, UniProt P27958); experiment: RNA polymerase activity of hepatitis C virus, inhibitory activity; format: biochemical
T1 construct: measuring RNA polymerase activity of hepatitis C virus
T1 sequence (P27958 2421-3011): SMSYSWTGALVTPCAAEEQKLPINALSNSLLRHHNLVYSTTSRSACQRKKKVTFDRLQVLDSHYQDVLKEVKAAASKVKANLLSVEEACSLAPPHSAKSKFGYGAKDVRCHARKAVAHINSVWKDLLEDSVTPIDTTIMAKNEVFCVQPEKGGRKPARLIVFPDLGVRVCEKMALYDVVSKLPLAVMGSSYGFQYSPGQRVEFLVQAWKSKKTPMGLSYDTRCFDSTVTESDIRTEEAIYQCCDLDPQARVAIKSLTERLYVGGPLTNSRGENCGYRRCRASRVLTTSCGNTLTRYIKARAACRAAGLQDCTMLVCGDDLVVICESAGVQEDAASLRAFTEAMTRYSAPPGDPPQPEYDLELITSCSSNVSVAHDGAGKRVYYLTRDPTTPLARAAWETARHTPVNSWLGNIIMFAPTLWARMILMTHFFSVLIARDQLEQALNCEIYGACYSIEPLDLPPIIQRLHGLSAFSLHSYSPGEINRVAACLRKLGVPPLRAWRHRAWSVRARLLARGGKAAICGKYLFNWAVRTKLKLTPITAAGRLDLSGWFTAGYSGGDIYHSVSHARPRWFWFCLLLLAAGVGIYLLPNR
Description: (1) By using an experimental system for measuring RNA polymerase activity of hepatitis C virus (D. Dhanak et al., J. Biol. Chem., 277, 38322-[…] (2002)), its inhibitory activity was examined.
With regard to the foregoing compound 2, major regioisomers were separated and purified, however, with regard to others, bioactivities were investigated using mixtures.

CN[C@H](CC(C)C)C(=O)N[C@H]1C(=O)N[C@@H](CC(N)=O)C(=O)N[C@H]2C(=O)N[C@H]3C(=O)N[C@H](C(=O)N[C@H](C(=O)O)c4cc(O)cc(O)c4-c4cc3ccc4O)[C@H](O)c3ccc(c(Cl)c3)Oc3cc2cc(c3O[C@@H]2O[C@H](CO)[C@@H](O)[C@H](O)[C@H]2O[C@H]2C[C@](C)(N)[C@H](O)[C@H](C)O2)Oc2ccc(cc2Cl)[C@H]1O [VCM, vancomycin, reference compound]
MIC (E. hirae ATCC 8043; Enterococcus hirae, ATCC8043): 3120 µg/mL (≈ 2150 µM) | MIC (S. eidermidis ATCC 14990): 3120 µg/mL (≈ 2150 µM) | MIC (S. aureus M133 (MRSA); Staphylococcus aureus, MRSA): 1560 µg/mL (≈ 1080 µM) | MIC (S. aureus M126 (MRSA); Staphylococcus aureus, MRSA): 1560 µg/mL (≈ 1080 µM) | MIC (S. aureus 209P JC-1; Staphylococcus aureus, 209P): 1560 µg/mL (≈ 1080 µM)

C60-bis(N,N-dimethyl-2-hexylpyyrolidinium iodido) [compound 4]
MIC (E. hirae ATCC 8043; E. hirae ATCC 8043): 25000 µg/mL | MIC [1]: 25000 µg/mL | MIC (S. eidermidis ATCC 14990; S. eidermidis ATCC 14990): 12500 µg/mL | MIC (S. aureus M133 (MRSA); S. aureus M133 (MRSA)): 12500 µg/mL | MIC (S. aureus M126 (MRSA); S. aureus M126 (MRSA)): 12500 µg/mL | MIC (S. aureus 209P JC-1; S. aureus 209P JC-1): 6250 µg/mL | MIC (E. faecium vanA (VRE)): 12500 µg/mL | MIC (E. faecalis W-73): 50000 µg/mL | IC50 [2]: 800 nM

O=C(O)CN1C(C(=O)O)C23c4c5c6c7c8c9c(c%10c%11c2c2c4c4c%12c5c5c6c6c8c8c%13c9c9c%10c%10c%11c%11c2c2c4c4c%12c%12c5c5c6c8c6c8c%13c9c9c%10c%10c%11c2c2c4c4c%12c5c6c5c8c9c%10c2c45)C73C1C(=O)O (stereo not shown) [compound 8]
IC50 [3]: 2000 nM | IC50 [2]: 29 nM

CN1CC23c4c5c6c7c8c9c(c%10c%11c2c2c4c4c%12c5c5c6c6c8c8c%13c9c9c%10c%10c%11c%11c2c2c4c4c%12c%12c5c5c6c8c6c8c%13c9c9c%10c%10c%11c2c2c4c4c%12c5c6c5c8c9c%10c2c45)C73C1c1ccc[n+](C)c1 (stereo not shown) [compound 12]
IC50 [2]: 5200 nM

O=C(O)CN1CC23c4c5c6c7c8c9c(c%10c%11c2c2c4c4c%12c5c5c6c6c8c8c%13c9c9c%10c%10c%11c%11c2c2c4c4c%12c%12c5c5c6c8c6c8c%13c9c9c%10c%10c%11c2c2c4c4c%12c5c6c5c8c9c%10c2c45)C73C1C(=O)O (stereo not shown) [compound 10]
IC50 [2]: 1000 nM

C[N+]1(C)CC23c4c5c6c7c8c9c(c%10c%11c2c2c4c4c%12c5c5c6c6c8c8c%13c9c9c%10c%10c%11c%11c2c2c4c4c%12c%12c5c5c6c8c6c8c%13c9c9c%10c%10c%11c2c2c4c4c%12c5c6c5c8c9c%10c2c45)C73C1 (stereo not shown) [compound 9]
IC50 [2]: 1600 nM
